Data from patent US12473304B2, “Heterocyclic PAD4 inhibitors” (BRISTOL-MYERS SQUIBB COMPANY, priority 2020, dated 2025).

These compounds were tested against human PAD4 (hPAD4) (Homo sapiens (Human), UniProt Q9UM07) (assay: RFMS Human PAD4 Functional Assay 1). Details: RFMS assay 1; 5 nM hPAD4, 250 μM BAEE substrate, 50 μM calcium, 37° C.
Type: biochemical
Outline: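 Recombinant hPAD4 (5 nM) was preincubated with compound (top 50 μM, 0.5% DMSO) for 30 min at 37 °C, then reacted with 250 μM BAEE for 90 min at 37 °C in pH 7.5 HEPES buffer with 50 μM calcium and 5 μM TPEN. Product was derivatized with phenyl glyoxal and quantified by RapidFire MS.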

human PAD4 (hPAD4), sequence (Q9UM07 whole entry): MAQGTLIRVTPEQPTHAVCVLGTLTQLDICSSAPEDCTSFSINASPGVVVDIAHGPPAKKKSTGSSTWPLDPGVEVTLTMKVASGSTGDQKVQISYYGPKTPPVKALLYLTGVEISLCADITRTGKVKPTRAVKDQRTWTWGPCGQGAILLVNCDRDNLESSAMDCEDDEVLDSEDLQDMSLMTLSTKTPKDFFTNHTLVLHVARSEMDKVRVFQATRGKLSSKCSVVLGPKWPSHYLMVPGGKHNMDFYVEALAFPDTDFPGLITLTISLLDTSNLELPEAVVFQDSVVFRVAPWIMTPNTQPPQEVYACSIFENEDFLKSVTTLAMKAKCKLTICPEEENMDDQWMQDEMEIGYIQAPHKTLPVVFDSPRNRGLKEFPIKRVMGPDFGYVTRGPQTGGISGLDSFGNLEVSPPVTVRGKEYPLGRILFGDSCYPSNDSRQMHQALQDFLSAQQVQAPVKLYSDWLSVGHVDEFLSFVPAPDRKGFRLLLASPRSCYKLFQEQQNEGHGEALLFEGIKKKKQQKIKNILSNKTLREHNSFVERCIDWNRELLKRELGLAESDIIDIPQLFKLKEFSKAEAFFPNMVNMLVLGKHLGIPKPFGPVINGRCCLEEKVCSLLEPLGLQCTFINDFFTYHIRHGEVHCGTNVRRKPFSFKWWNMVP

Row | Compound | IC50
1 | COc1cc(C(=O)N2CCC[C@@H](N)C2)cn2nc(-c3cc4ccc(N5CCC(CC(=O)N(C)C)CC5)cc4n3CC3CC3)c(C)c12 [Example 250, 2-[1-(2-{6-[(3R)-3-Aminopiperidine-1-carbonyl]-4-methoxy-3-methylpyrazolo[1,5-a]pyridin-2-yl}-1-(cyclopropylmethyl)-1H-indol-6-yl)piperidin-4-yl]-N,N-dimethylacetamide] | 90 nM
2 | COc1cc(C(=O)N2CCC[C@@H](N)C2)cn2nc(-c3cc4ccc(N5CCC(C(=O)N6CC(OC)C6)CC5)cc4n3CC3CC3)c(C)c12 [Example 251, (3R)-1-{2-[1-(Cyclopropylmethyl)-6-[4-(3-methoxyazetidine-1-carbonyl)piperidin-1-yl]-1H-indol-2-yl]-4-methoxy-3-methylpyrazolo[1,5-a]pyridine-6-carbonyl}piperidin-3-amine] | 180 nM
3 | COc1cc(C(=O)N2CCC[C@@H](N)C2)cn2nc(-c3cc4ccc(N5CCC(N(C)C(C)=O)CC5)cc4n3CC3CC3)c(C)c12 [Example 252, N-[1-(2-{6-[(3R)-3-Aminopiperidine-1-carbonyl]-4-methoxy-3-methylpyrazolo[1,5-a]pyridin-2-yl}-1-(cyclopropylmethyl)-1H-indol-6-yl)piperidin-4-yl]-N-methylacetamide] | 790 nM
4 | COc1cc(C(=O)N2CCC[C@@H](N)C2)cn2nc(-c3cc4ccc(N5CCC(N(C)C(C)=O)CC5)cc4n3CC3CC3)c(C)c12 [Example 253, N-[1-(2-{6-[(3R)-3-Aminopiperidine-1-carbonyl]-4-methoxy-3-methylpyrazolo[1,5-a]pyridin-2-yl}-1-(cyclopropylmethyl)-1H-indol-6-yl)piperidin-4-yl]-N-methylacetamide] | 290 nM
5 | COc1cc(C(=O)N2CCC[C@@H](N)C2)cn2nc(-c3cc4ccc(N5CCC(N(C)S(C)(=O)=O)CC5)cc4n3CC3CC3)c(C)c12 [Example 254, N-[1-(2-{6-[(3R)-3-Aminopiperidine-1-carbonyl]-4-methoxy-3-methylpyrazolo[1,5-a]pyridin-2-yl}-1-(cyclopropylmethyl)-1H-indol-6-yl)piperidin-4-yl]-N-methylmethanesulfonamide] | 320 nM
6 | COC(=O)N(C)C1CCN(c2ccc3cc(-c4nn5cc(C(=O)N6CCC[C@@H](N)C6)cc(OC)c5c4C)n(CC4CC4)c3c2)CC1 [Example 255, Methyl N-[1-(2-{6-[(3R)-3-aminopiperidine-1-carbonyl]-4-methoxy-3-methylpyrazolo[1,5-a]pyridin-2-yl}-1-(cyclopropylmethyl)-1H-indol-6-yl)piperidin-4-yl]-N-methylcarbamate] | 250 nM
7 | COc1cc(C(=O)N2CCC[C@@H](N)C2)cn2nc(-c3cc4ccc(N5CC(N(C)S(C)(=O)=O)C5)cc4n3CC3CC3)c(C)c12 [Example 256, N-[1-(2-{6-[(3R)-3-Aminopiperidine-1-carbonyl]-4-methoxy-3-methylpyrazolo[1,5-a]pyridin-2-yl}-1-(cyclopropylmethyl)-1H-indol-6-yl)azetidin-3-yl]-N-methylmethanesulfonamide] | 330 nM
8 | Cc1c(-c2cc3ccc(-c4ccccc4N4CCNC4=O)nc3n2CC2CC2)nn2cc(C(=O)N3CC4CCC3[C@@H]4N)cc(F)c12 (stereo partly drawn) [Example 257, 1-[2-(2-{6-[(7R)-7-Amino-2-azabicyclo[2.2.1]heptane-2-carbonyl]-4-fluoro-3-methylpyrazolo[1,5-a]pyridin-2-yl}-1-(cyclopropylmethyl)-1H-pyrrolo[2,3-b]pyridin-6-yl)phenyl]imidazolidin-2-one] | 60 nM
9 | Cc1c(-c2cc3ccc(-c4ccc(N5CCCC5=O)cc4)nc3n2CC2CC2)nn2cc(C(=O)N3CC4CCC3[C@@H]4N)cc(F)c12 (stereo partly drawn) [Example 258, 1-[4-(2-{6-[(7R)-7-Amino-2-azabicyclo[2.2.1]heptane-2-carbonyl]-4-fluoro-3-methylpyrazolo[1,5-a]pyridin-2-yl}-1-(cyclopropylmethyl)-1H-pyrrolo[2,3-b]pyridin-6-yl)phenyl]pyrrolidin-2-one] | 220 nM
10 | Cc1c(O)cccc1-c1ccc2cc(-c3nn4cc(C(=O)N5CC6CCC5[C@@H]6N)cc(F)c4c3C)n(CC3CC3)c2n1 (stereo partly drawn) [Example 259, 3-(2-{6-[(7R)-7-Amino-2-azabicyclo[2.2.1]heptane-2-carbonyl]-4-fluoro-3-methylpyrazolo[1,5-a]pyridin-2-yl}-1-(cyclopropylmethyl)-1H-pyrrolo[2,3-b]pyridin-6-yl)-2-methylphenol] | 20 nM
11 | Cc1cc(C(N)=O)c(F)cc1-c1ccc2cc(-c3nn4cc(C(=O)N5CC6CCC5[C@@H]6N)cc(F)c4c3C)n(CC3CC3)c2n1 (stereo partly drawn) [Example 260, 4-(2-{6-[(7R)-7-Amino-2-azabicyclo[2.2.1]heptane-2-carbonyl]-4-fluoro-3-methylpyrazolo[1,5-a]pyridin-2-yl}-1-(cyclopropylmethyl)-1H-pyrrolo[2,3-b]pyridin-6-yl)-2-fluoro-5-methylbenzamide] | 220 nM
12 | Cc1c(-c2cc3ccc(-c4ccc(N5CCNC5=O)cc4)nc3n2CC2CC2)nn2cc(C(=O)N3CC4CCC3[C@@H]4N)cc(F)c12 (stereo partly drawn) [Example 261, 1-[4-(2-{6-[(7R)-7-Amino-2-azabicyclo[2.2.1]heptane-2-carbonyl]-4-fluoro-3-methylpyrazolo[1,5-a]pyridin-2-yl}-1-(cyclopropylmethyl)-1H-pyrrolo[2,3-b]pyridin-6-yl)phenyl]imidazolidin-2-one] | 420 nM
13 | Cc1cc(-c2ccc3cc(-c4nn5cc(C(=O)N6CC7CCC6[C@@H]7N)cc(F)c5c4C)n(CC4CC4)c3n2)ccc1C(N)=O (stereo partly drawn) [Example 262, 4-(2-{6-[(7R)-7-Amino-2-azabicyclo[2.2.1]heptane-2-carbonyl]-4-fluoro-3-methylpyrazolo[1,5-a]pyridin-2-yl}-1-(cyclopropylmethyl)-1H-pyrrolo[2,3-b]pyridin-6-yl)-2-methylbenzamide] | 120 nM
14 | Cc1c(-c2cc3ccc(-c4ccc(C(N)=O)cc4)nc3n2CC2CC2)nn2cc(C(=O)N3CC4CCC3[C@@H]4N)cc(F)c12 (stereo partly drawn) [Example 263, 4-(2-{6-[(7R)-7-Amino-2-azabicyclo[2.2.1]heptane-2-carbonyl]-4-fluoro-3-methylpyrazolo[1,5-a]pyridin-2-yl}-1-(cyclopropylmethyl)-1H-pyrrolo[2,3-b]pyridin-6-yl)benzamide] | 90 nM
15 | CNC(=O)c1ccc(-c2ccc3cc(-c4nn5cc(C(=O)N6CC7CCC6[C@@H]7N)cc(F)c5c4C)n(CC4CC4)c3n2)cn1 (stereo partly drawn) [Example 264, 5-(2-{6-[(7R)-7-Amino-2-azabicyclo[2.2.1]heptane-2-carbonyl]-4-fluoro-3-methylpyrazolo[1,5-a]pyridin-2-yl}-1-(cyclopropylmethyl)-1H-pyrrolo[2,3-b]pyridin-6-yl)-N-methylpyridine-2-carboxamide] | 10 nM
16 | Cc1c(-c2cc3ccc(N4CCC[C@@H](O)C4)nc3n2CC2CC2)nn2cc(C(=O)N3CC4CCC3[C@@H]4N)cc(F)c12 (stereo partly drawn) [Example 265, ((7R)-7-Amino-2-azabicyclo[2.2.1]heptan-2-yl)(2-(1-(cyclopropylmethyl)-6-((R)-3-hydroxypiperidin-1-yl)-1H-pyrrolo[2,3-b]pyridin-2-yl)-4-fluoro-3-methylpyrazolo[1,5-a]pyridin-6-yl)methanone] | 110 nM
